# In ChEMBL document CHEMBL1201862, “PubChem BioAssay data set” (2004):
# Where “and” joins values, the source holds several entries; their conditions need not be identical. Identical values can stand only once.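 Briefly, cells in 96-well plates were exposed to five compound concentrations for 48 h, and endpoints were estimated by linear interpolation. GI50 marks 50% less growth.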 Calls of active or inactive are those of the source. No stated cut-off is given here; in the data, active = GI50 up to about 1.1 µM and inactive = higher.
# Tests used:
# Assay in all cases: DTP human tumour cell line panel, 48 h
# K562 = system: K562
# CAKI-1 = system: CAKI-1
# IGROV-1 = system: IGROV-1
# HCC 2998 = system: HCC 2998
# HOP-62 = system: HOP-62
# U-251 = system: U-251
# OVCAR-3 = system: OVCAR-3
# OVCAR-8 = system: OVCAR-8
# SF-539 = system: SF-539
# SNB-75 = system: SNB-75
# ACHN = system: ACHN
# A498 = system: A498
# TK-10 = system: TK-10
# SF-268 = system: SF-268
# KM12 = system: KM12
# 786-0 = system: 786-0
# NCI-H522 = system: NCI-H522
Compound,GI50 (K562),GI50 (CAKI-1),GI50 (IGROV-1),GI50 (HCC 2998),GI50 (HOP-62),GI50 (U-251),GI50 (OVCAR-3),GI50 (OVCAR-8),GI50 (SF-539),GI50 (SNB-75),GI50 (ACHN),GI50 (A498),GI50 (TK-10),GI50 (SF-268),GI50 (KM12),GI50 (786-0),GI50 (NCI-H522)
CCN(CC)CC(C)(C)C(=O)/C=C/c1cccc(/C=C/C(=O)C(C)(C)CN(CC)CC)c1,0.431 µM (active),0.286 µM (active),1.02 µM (active),1.22 µM (inactive),2.31 µM (inactive),0.219 µM (active),1.11 µM (active),0.333 µM (active),1.05 µM (active),0.176 µM (active),1.15 µM (inactive),1.36 µM (inactive),1.14 µM (inactive),0.429 µM (active),0.471 µM (active),0.579 µM (active),–
NC(=O)/C(=N\NC(=O)C[n+]1ccccc1)C1NC(=O)NC1=O (stereo unspecified),> 100 µM (inactive),> 100 µM (inactive),> 100 µM (inactive),> 100 µM (inactive),> 100 µM (inactive),–,> 100 µM (inactive),> 100 µM (inactive),> 100 µM (inactive),> 100 µM (inactive),> 100 µM (inactive),> 100 µM (inactive),> 100 µM (inactive),> 100 µM (inactive),> 100 µM (inactive),> 100 µM (inactive),–
Cc1ccccc1/N=N/c1c(-c2ccccc2)nn(C(=O)CC(=O)Nc2cccc(Cl)c2)c1-c1ccccc1,16.8 µM (inactive),31.6 µM (inactive),> 31.6 µM (inactive),22.2 µM (inactive),> 31.6 µM (inactive),13.7 µM (inactive),18.5 µM (inactive),21.3 µM (inactive),24.2 µM (inactive),28.2 µM (inactive),23 µM (inactive),19 µM (inactive),0.27 µM (active),24 µM (inactive),–,18.5 µM (inactive),> 10 µM (inactive)
COc1cc2c(Cc3cc(OCc4ccccc4)ccc3N)nccc2c(OC)c1OC,> 10 µM (inactive),–,> 10 µM (inactive),> 10 µM (inactive),> 10 µM (inactive),> 10 µM (inactive),> 10 µM (inactive),> 10 µM (inactive),> 10 µM (inactive),> 10 µM (inactive),> 10 µM (inactive),–,> 10 µM (inactive),> 10 µM (inactive),> 10 µM (inactive),> 10 µM (inactive),> 10 µM (inactive)
Cc1ccc(S(=O)(=O)n2c(-c3ccccc3)c(-c3ccccc3)c3ccccc32)cc1,64.9 µM (inactive),–,> 100 µM (inactive),> 100 µM (inactive),> 100 µM (inactive),> 100 µM (inactive),> 100 µM (inactive),> 100 µM (inactive),> 100 µM (inactive),> 100 µM (inactive),> 100 µM (inactive),–,> 100 µM (inactive),> 100 µM (inactive),> 100 µM (inactive),> 100 µM (inactive),> 100 µM (inactive)
C1=Cc2nc1c(-c1ccncc1)c1ccc([n-]1)c(-c1ccncc1)c1nc(c(-c3ccncc3)c3ccc([n-]3)c2-c2ccncc2)C=C1.[Zn+2],> 100 µM (inactive),> 100 µM (inactive),> 100 µM (inactive),> 100 µM (inactive),> 100 µM (inactive),> 100 µM (inactive),> 100 µM (inactive),> 100 µM (inactive),> 100 µM (inactive),> 100 µM (inactive),> 100 µM (inactive),–,> 100 µM (inactive),> 100 µM (inactive),> 100 µM (inactive),> 100 µM (inactive),> 100 µM (inactive)
O=C(COc1ccccc1Cl)N1N=C(c2ccc(Cl)cc2)CC1(O)c1ccccc1 (stereo unspecified),> 100 µM (inactive),> 100 µM (inactive),> 100 µM (inactive),> 100 µM (inactive),> 100 µM (inactive),> 100 µM (inactive),> 100 µM (inactive),> 100 µM (inactive),> 100 µM (inactive),> 100 µM (inactive),> 100 µM (inactive),–,> 100 µM (inactive),> 100 µM (inactive),> 100 µM (inactive),> 100 µM (inactive),> 100 µM (inactive)
Cc1ccc(S(=O)(=O)OCC23CCC(C4CC42)C2CC23)cc1 (stereo unspecified),52.4 µM (inactive),> 100 µM (inactive),> 100 µM (inactive),> 100 µM (inactive),52.7 µM (inactive),> 100 µM (inactive),38.5 µM (inactive),> 100 µM (inactive),–,–,> 100 µM (inactive),96.2 µM (inactive),> 100 µM (inactive),67.9 µM (inactive),–,> 100 µM (inactive),–
O=c1ncccn1[C@@H]1O[C@H](CO)[C@@H](O)[C@@H]1F,–,> 100 µM (inactive),> 100 µM (inactive),> 100 µM (inactive),> 68.5 µM (inactive),> 100 µM (inactive),> 100 µM (inactive),> 100 µM (inactive) and > 95.9 µM (inactive),–,> 100 µM (inactive) and > 50.9 µM (inactive),> 100 µM (inactive),> 100 µM (inactive),> 100 µM (inactive) and > 69.5 µM (inactive),> 100 µM (inactive),–,> 100 µM (inactive),> 100 µM (inactive)
